# From paper PMC9101087, “A Sensitive LC-MS/MS Method for the Simultaneous Determination of Two Thia-Analogous Indirubin N-Glycosides and Indirubin-3′-Monoxime in Plasma and Cell Culture Medium” (Molecules, 2022)
# pIC50: −log10 of the molar value.
# Legend:
# leukemia cells (HL60) = conditions: sulforhodamine B assay, incubation 24 h longer than the 48-h assay; cited from earlier work
# [1] = tested on: human gastric (SNU-638) cancer cells; conditions: sulforhodamine B assay, incubation 24 h longer than the 48-h assay; cited from earlier work
# [2] = tested on: human colon (Col2) cancer cells; conditions: sulforhodamine B assay, incubation 24 h longer than the 48-h assay; cited from earlier work
# A549 lung cancer cells = conditions: sulforhodamine B assay, incubation 24 h longer than the 48-h assay; cited from earlier work
# [3] = tested on: human fibrosarcoma cell line HT1080; conditions: sulforhodamine B assay, incubation 24 h longer than the 48-h assay; cited from earlier work
# [4] = tested on: human breast cancer cells (MCF-7); conditions: sulforhodamine B assay, incubation 24 h longer than the 48-h assay; cited from earlier work
# [5] = Storage stability in human plasma, LC-MS/MS after plasma extraction; type: in vitro ADME; conditions: for Stability 4 °C / Stability AS (autosampler) / Stability −20 °C / Stability BT (benchtop): 24 h; for Stability FT (freeze-thaw): freeze-thaw cycles; for Stability −80 °C 90 d: long-term freezing; for Stability BT (benchtop): room temperature
# Protocol: (§1) To assess stability, low and high concentrations of all analytes were subjected to different storage conditions. […] For determination of long-term stability, samples were stored in either plasma or DMEM at –80 °C for 90 and 91 days, respectively. To measure short-term stability, samples were stored at room temperature, in an autosampler, at 4 °C, and at –20 °C for 24 h. In addition, freeze-thaw cycles were performed according to FDA guidance for the standard solutions. For comparison, at least three freshly prepared samples were prepared for each concentration level. With the exception of autosampler stability, the internal standard was always added to all samples before sample processing was started.
# (§2) Liquid-liquid extraction was performed identically for plasma and DMEM samples. After addition of the 1.0 µM internal standard, 50 µL of 0.8 M alkaline carbonate buffer was added. The extraction was performed once with 890 µL ethyl acetate. Tubes were then shaken for 10 min at 1400 rpm using a Thermomixer 5436 (Eppendorf AG, Hamburg, Germany) followed by centrifugation for 5 min at 14,000 rpm using a Centrifuge 5415 C (Eppendorf AG, Hamburg, Germany). Subsequently, 850 µL of the supernatant was transferred to a new tube and evaporated to dryness for 35 min at 35 °C (8 min heating time) using a SpeedVac SPD130DLX (Thermo Fisher Scientific, Asheville, NC, USA). Reconstitution was performed with 200 µL of a acetonitrile/water/H2SO4 [3/0.5/0.5] mixture, shaken at 1400 rpm for 5 min, and centrifuged again at 14,000 rpm for 5 min. Finally, 155 µL of the sample was transferred to an LC vial and analyzed.
# (§3) To assess stability, low and high concentrations of all analytes were exposed to different storage conditions. To determine long-term stability, samples were stored in either plasma or DMEM at −80 °C for 90 and 91 days, respectively. To determine short-term stability, samples were stored for 24 h on the bench at room temperature, in the autosampler, at 4 °C, and at −20 °C. In addition, freeze-thaw cycles were performed for the standard solutions according to FDA guidance. At least three freshly prepared samples per concentration level were prepared for comparison. With the exception of the stability test in the autosampler, the internal standard was always added to all samples before sample processing was started. However, to avoid concentration fluctuations due to possible degradation of the analytes, stock solutions were prepared twice a week and stored at −20 °C. Each storage condition was examined in the dark. For all conditions studied, n = 3–6 replicates were prepared.
# [6] = Storage stability in human plasma, LC-MS/MS after plasma precipitation; type: in vitro ADME; conditions: for Stability 4 °C / Stability AS (autosampler) / Stability −20 °C / Stability BT (benchtop): 24 h; for Stability FT (freeze-thaw): freeze-thaw cycles; for Stability BT (benchtop): room temperature
# Protocol: as §1
# After mixing the 1.5 µM internal standard and the plasma sample, protein precipitation was commenced. Next, 190 µL of acetonitrile and 50 µL of 0.5 M sulfuric acid buffer were added. The tubes were then shaken at 1400 rpm for 5 min followed by centrifugation at 14,000 rpm for 5 min. Subsequently, 195 µL of the supernatant was transferred to an LC tube and analyzed.
# as §3
# [7] = Storage stability in DMEM, LC-MS/MS after DMEM extraction; type: physicochemical; conditions: for Stability 4 °C / Stability AS (autosampler) / Stability −20 °C / Stability BT (benchtop): 24 h; for Stability FT (freeze-thaw): freeze-thaw cycles; for Stability −80 °C 91 d: long-term freezing; for Stability BT (benchtop): room temperature
# Protocol: as §1
# Regarding the medium, validation procedures were performed with high-glucose DMEM supplemented with 100 U/mL penicillin and 100 μg/mL streptomycin, but not with FBS. With the exception of selectivity, where both media (GlutaMAX™-I or UltraGlutamine^TM I supplement) were tested, only Gibco™ DMEM with GlutaMAX™-I was used for all other analytical procedures.
# as §2, §3
# [8] = Storage stability in human plasma, LC-MS/MS after plasma precipitation; type: in vitro ADME; conditions: long-term freezing
# [9] = tested on: A549 (non-small cell lung carcinoma); assay: WST-1 cell viability assay, 48-h incubation; type: cell-based, human; conditions: A549, WST-1, 48 h
# Protocol: (§4) To test the biological activity of the thia-analogous indirubin N-glycosides that are the focus of the present work, the effects of KD87 and KD85 and their non-glycosylated parent compound KD88 on the viability of various tumor cell lines were initially investigated. The corresponding analyses were performed using the cell lines A375 (melanoma), A431 (skin squamous cell carcinoma), A549 (non-small cell lung carcinoma), U251MG (glioblastoma), and U138MG (glioblastoma).
# (§5) Figure 2 Effect of increasing concentrations of KD87 (A), KD85 (B), and KD88 (C) on viability of various cancer cells. A375 (melanoma; black columns), A431 (skin squamous cell carcinoma; dark grey columns), A549 (non-small cell lung carcinoma; grey columns), U251MG (glioblastoma; light grey columns), or U138MG (glioblastoma; white columns) were incubated for 48 h with the appropriate compounds or vehicle followed by determination of cell viability by WST-1 assay. Percent control represents comparison with vehicle-treated cells (100%) in the absence of test substance. Values are mean ± standard error of the mean (SEM) of n = 15 in all panels, except n = 14 for A375 and A431 cells in panel B and n = 14–15 for A375 cells in panel C, from four (A375, A431) or five (A549, U251MG, U138MG) independent experiments. * p ≤ 0.05, ** p ≤ 0.01, *** p ≤ 0.001, **** p ≤ 0.0001 vs. vehicle control; one-way ANOVA with Dunnett’s post hoc test.
# (§6) The human melanoma cell line A375 (#300110; RRID:CVCL_0132) as well as the human skin epidermoid carcinoma cell line A431 (#300112; RRID:CVCL_0037) were purchased from CLS Cell Lines Service GmbH (Eppelheim, Germany). The human glioblastoma cell line U251MG (#09063001; RRID:CVCL_0021) was from Sigma-Aldrich Corporation. The human glioblastoma cell line U138MG (#ACC 291; RRID: CVCL_0020) and the human lung carcinoma cell line A549 (#ACC 107, RRID:CVCL_0023) were purchased from DSMZ (Deutsche Sammlung von Mikroorganismen und Zellkulturen GmbH, Braunschweig, Germany).
# (§7) Cells were cultured in high-glucose DMEM (with GlutaMAX™-I: A375, A431; with UltraGlutamine^TM I: A549, U251MG, U138MG) supplemented with 10% heat-inactivated FBS, 100 U/mL penicillin, and 100 μg/mL streptomycin and grown in a humidified incubator at 37 °C and 5% CO2. For viability analyses, cells were seeded in 96-well plates at a density of 5000 cells per well in DMEM containing 10% heat-inactivated FBS and cultured for 24 h. All cell experiments with the specific substances were performed in serum-free DMEM supplemented with 100 U/mL penicillin and 100 μg/mL streptomycin, applied after washing the cells with DPBS. The test substances were dissolved in DMSO. The final concentration of DMSO in the incubation media of test substance- and vehicle-treated cells was 1% (v/v).
# (§8) After completion of the 48-h incubation, WST-1 reagent (Sigma, Taufkirchen, Germany) was added to the cells to achieve a final dilution of 1:10, and the cells were incubated for an additional 20 min before absorbance was measured at 450 nm, reference wavelength […], using a microplate reader.
# U138MG (glioblastoma) = assay: WST-1 cell viability assay, 48-h incubation; type: cell-based, human; conditions: WST-1, 48 h
# Protocol: as §4, §5, §6, §7, §8
# U251MG (glioblastoma) = assay: WST-1 cell viability assay, 48-h incubation; type: cell-based, human; conditions: WST-1, 48 h
# Protocol: as §4, §5, §6, §7, §8
# A375 (melanoma) = assay: WST-1 cell viability assay, 48-h incubation; type: cell-based, human; conditions: A375, WST-1, 48 h
# Protocol: as §4, §5, §6, §7, §8
# [10] = tested on: A431 (skin squamous cell carcinoma); assay: WST-1 cell viability assay, 48-h incubation; type: cell-based, human; conditions: A431, WST-1, 48 h
# Protocol: as §4, §5, §6, §7, §8
structure (smiles),measurement,setting,value
O=C1Nc2ccccc2/C1=C1/Nc2ccccc2C1=O [indirubin],pIC50,leukemia cells (HL60),< 4.00
same,pIC50,[1],< 4.00
same,pIC50,[2],< 4.00
same,pIC50,A549 lung cancer cells,4.51
same,pIC50,[3],4.38
same,pIC50,[4],< 4.00
"O=C1Nc2ccccc2/C1=C1/Nc2ccccc2/C1=N\O [I3M, indirubin-3′-monoxime]",Stability 4 °C,[5]; 3.0 nM,95.9 ± 8.7%
same,Stability AS (autosampler),[5]; 3.0 nM,68.0 ± 1.5%
same,Stability −20 °C,[5]; 3.0 nM,93.8 ± 1.9%
same,Stability FT (freeze-thaw),[5]; 3.0 nM,94.9 ± 4.0%
same,Stability −80 °C 90 d,[5]; 3.0 nM,96.2 ± 7.2%
same,Stability BT (benchtop),[5]; 3.0 nM,102.2 ± 1.8%
same,Stability 4 °C,[5]; 250 nM,94.6 ± 2.2%
same,Stability AS (autosampler),[5]; 250 nM,58.5 ± 1.3%
same,Stability −20 °C,[5]; 250 nM,96.5 ± 1.6%
same,Stability FT (freeze-thaw),[5]; 250 nM,99.7 ± 1.6%
same,Stability −80 °C 90 d,[5]; 250 nM,100.6 ± 3.0%
same,Stability BT (benchtop),[5]; 250 nM,96.3 ± 7.3%
same,Stability 4 °C,[6]; 2.0 nM,89.7 ± 1.5%
same,Stability AS (autosampler),[6]; 2.0 nM,124.3 ± 9.5%
same,Stability −20 °C,[6]; 2.0 nM,95.2 ± 3.7%
same,Stability FT (freeze-thaw),[6]; 2.0 nM,104.1 ± 5.5%
same,Stability BT (benchtop),[6]; 2.0 nM,100.1 ± 9.0%
same,Stability 4 °C,[6]; 167 nM,91.5 ± 3.3%
same,Stability AS (autosampler),[6]; 167 nM,112.0 ± 6.8%
same,Stability −20 °C,[6]; 167 nM,93.7 ± 7.7%
same,Stability FT (freeze-thaw),[6]; 167 nM,99.7 ± 7.4%
same,Stability BT (benchtop),[6]; 167 nM,98.6 ± 4.3%
same,Stability 4 °C,[7]; 3.0 nM,113.8 ± 6.6%
same,Stability AS (autosampler),[7]; 3.0 nM,65.0 ± 1.3%
same,Stability −20 °C,[7]; 3.0 nM,92.0 ± 1.1%
same,Stability FT (freeze-thaw),[7]; 3.0 nM,100.0 ± 5.7%
same,Stability −80 °C 91 d,[7]; 3.0 nM,90.6 ± 4.5%
same,Stability BT (benchtop),[7]; 3.0 nM,66.8 ± 2.7%
same,Stability 4 °C,[7]; 40 nM,100.4 ± 1.3%
same,Stability AS (autosampler),[7]; 40 nM,63.6 ± 0.3%
same,Stability −20 °C,[7]; 40 nM,93.1 ± 2.5%
same,Stability FT (freeze-thaw),[7]; 40 nM,99.5 ± 3.2%
same,Stability −80 °C 91 d,[7]; 40 nM,99.0 ± 2.7%
same,Stability BT (benchtop),[7]; 40 nM,59.4 ± 2.4%
same,Stability −80 °C 91 d,[8]; 2.0 nM,101.0 ± 9.0%
same,Stability −80 °C 91 d,[8]; 167 nM,103.0 ± 3.6%
"O=C1Nc2ccccc2/C1=C1/Sc2ccccc2C1=O [KD88, 3-[3′-oxo-benzo[b]thiophene-2′-(Z)-ylidene]-oxindole]",cytotoxic potential (in words),[9],no cytotoxic potential
same,cytotoxic potential (in words),U138MG (glioblastoma),no cytotoxic potential
same,cytotoxic potential (in words),U251MG (glioblastoma),no cytotoxic potential
same,cytotoxic potential (in words),A375 (melanoma),no cytotoxic potential
same,cytotoxic potential (in words),[10],no cytotoxic potential
